Key:
[1] = system: Meloidogyne javanica; test: Mobility of Meloidogyne javanica in the soil microcosm, different carboxylic acids (Example 3); settings: Fluopyram 24 ppm (positive control), 5 h incubation
Experimental: Juvenile nematodes of M. javanica were deposited on the surface of a column of sterile soil 2 cm thick resting on a sieve (cotton wool), 1 hour before adding the test products in order to allow them time to move in the porosity of the soil. The nematodes will be distributed randomly in the layer of soil, depending on their mobility. […] The mobile nematodes pass through the column of soil and migrate naturally into the water. The nematodes passing into the water can be counted.
If the concentration of test product considered is inhibitory for the mobility of the nematodes in the presence of soil, the nematodes are kept in the column of soil and delayed in their migration into the water. The time for emergence of the nematodes from the column of soil is longer as the concentration of nematostatic product increases.
The method is identical to that described in Example 1. […]

[2] = system: Meloidogyne javanica; test: Mobility of Meloidogyne javanica in the soil microcosm (Example 1)
Experimental: The nematodes will be distributed randomly in the layer of soil, depending on their mobility. After adding the test products and incubating for 6 h, the column of soil and the sieve were placed in a tube containing water. The mobile nematodes pass through the column of soil and migrate naturally into the water. The nematodes passing into the water can be counted. If the concentration of test product considered is inhibitory for the mobility of the nematodes in the presence of soil, the nematodes are kept in the column of soil and delayed in their migration into the water. The time for emergence of the nematodes from the column of soil is longer as the concentration of nematostatic product increases.

[3] = calcium formate 780 ppm alone, or with RD2 100 or 1000 ppm, 6 h incubation, kinetics over 144 h

Row | Structure (SMILES) | nematodes that had left the microcosm of the soil after 160 hours [1] | nematodes that left the microcosm at 3 days ([2]; at 3 days, calcium formate 780 ppm alone, or calcium formate 780 ppm + RD2 1000 ppm) [%] | nematodes affected reversibly in their mobility [2, 3] [%] | nematodes not affected in their mobility [2, 3] [%] | nematodes affected irreversibly at 6 days ([2]; calcium formate 780 ppm alone, or with RD2 100 or 1000 ppm, at 6 days) [%]
1 | O=C(NCCc1ncc(C(F)(F)F)cc1Cl)c1ccccc1C(F)(F)F [Fluopyram] | no nematode had left the microcosm | – | – | – | –
2 | O=C[O-].O=C[O-].[Ca+2] [calcium formate] | – | 92 | 62 | 14 | 24

From patent US20250275541A1, “NEMATOSTATIC COMPOSITIONS, AND USE THEREOF IN AGRICULTURE” (AGRO INNOVATION INTERNATIONAL, priority 2019, published 2025)
